Patent US20140193370A1, “METHODS AND COMPOSITIONS FOR PROMOTING LEAN BODY MASS GROWTH” (NESTEC SA, priority 2011, published 2014)

System: adult dogs
Test: Chronic oral OEA in the diet of dogs fed 25% more than MER; body weight gain and body composition by DEXA
Format: in vivo, dog
Text: The physiological effects of regular oral OEA administration were investigated. OEA was provided as a supplement to dogs for […] to study the effect on body weight gain and body composition. Eighteen adult dogs participated in the study. Males with less than 17.5% body fat and females with less than 20% body fat were selected. Based on maintenance energy requirements (MER,) body weight and percentage of body fat, the dogs were randomly assigned into two groups. The control group (N=9) received a standard dry adult dog food (control diet without any OEA). The test group (N=9) received a selected dose of OEA incorporated into the standard diet. The dogs were fed 25% more than their MER for eight months. During the first four months, they received their ration in one meal per day. From month four to eight, they received their ration equally divided in two meals per day. Body weight was recorded weekly and dual X-ray absorptiometry (DEXA) scans were performed at baseline and every two months. Food intake was recorded daily. There was no difference in food consumption between groups (i.e., similar caloric intake).

CCCCCCCC/C=C\CCCCCCCC(=O)NCCO [OEA, oleoylethanolamide]
Lean Gain (g/kg body weight gain) (chronic oral OEA in diet, dogs, eight months, control diet 139): 170 g/kg body weight gain | Fat Gain (g/kg body weight gain) (chronic oral OEA in diet, dogs, eight months, control diet 1333): 853 g/kg body weight gain | more lean body mass gained per kilogram of body weight gain than dogs fed the control diet (eight month study, OEA containing diet vs control diet): 22% | more fat gained per kilogram of body weight gain by dogs fed the control diet than by dogs fed the OEA containing diet (eight month study, control diet vs OEA containing diet): 56% | body fat (end of eight month study, dogs fed 25% more than MER, OEA incorporated into standard diet, control diet 16.0%): 14.8% | gain in lean body mass (end of eight month study, dogs fed 25% more than MER, OEA incorporated into standard diet, control diet 236.9 g): 446.7 g | food consumption (caloric intake) vs control group (food intake recorded daily, OEA diet group vs control diet group): no difference
